Structures can show the parent of a compound that is named as a salt.
Legend:
MV4-11 cell line = experiment: Antiproliferative activity on MV4-11 cell line (AlamarBlue); format: cell-based; settings: Homo sapiens, 120 h incubation, average of several runs, read-out: MV-4-11 IC50
Experimental: The antiproliferative activity of the CDK8 inhibitors according to the present invention was measured in a cell test on a finite MV4-11 cell line (biphenotypic myelomonocytic leukemia, ATCC© CRL-9591™) using an intravital AlamarBlue dye (ThermoFisher, #DAL1100). The cells were grown on an RPMI-1640 medium (PanEco, #C330p) supplemented with 10% FBS (Gibco, #16140-071), then washed and re-seeded on a culture medium with 10% FBS (Gibco, #16140-071) in 96-well culture plates (Corning, #3599) in the amount of ˜10×10^3 cells per 100 μl of medium per well. The tested compounds were dissolved in DMSO and diluted with 10% FBS (Gibco, #16140-071) to a final concentration ranging from 0 to 100 μM. […] At the end of the incubation period, 15 μl of AlamarBlue reagent (ThermoFisher, #DAL1100) were added to the wells. The contents of the plates were mixed using an orbital shaker (Biosan, Latvia), and incubated further from 3 to 5 hours at 37° C. in an incubator with 5% C02. The number of living cells was detected using a microplate spectrophotometer (Tecan Infinite M200Pro, Switzerland) by measuring a fluorescence signal at an excitation wavelength (λEx) of 540 nm and emission wavelength (λEm) of 590 nm.
The IC50 value was determined using the Magellan 7.2 program (Tesap, Switzerland) by approximating the experimental points using a four-parameter model with the Levenberg-Marquardt optimization (Table 10).

CDK8/CyclinC = molecular target: T1, CDK8/CyclinC (Homo sapiens, UniProt P49336); experiment: LanthaScreen TR-FRET binding to recombinant CDK8 in complex with Cyclin C; settings: CDK8/CyclinC 5 nM, Tracer 236 10 nm, average of several runs; read-out: CDK8-CycC IC50
T1 construct: purchased ThermoFisher PR7261B
T1 sequence (P49336 whole entry): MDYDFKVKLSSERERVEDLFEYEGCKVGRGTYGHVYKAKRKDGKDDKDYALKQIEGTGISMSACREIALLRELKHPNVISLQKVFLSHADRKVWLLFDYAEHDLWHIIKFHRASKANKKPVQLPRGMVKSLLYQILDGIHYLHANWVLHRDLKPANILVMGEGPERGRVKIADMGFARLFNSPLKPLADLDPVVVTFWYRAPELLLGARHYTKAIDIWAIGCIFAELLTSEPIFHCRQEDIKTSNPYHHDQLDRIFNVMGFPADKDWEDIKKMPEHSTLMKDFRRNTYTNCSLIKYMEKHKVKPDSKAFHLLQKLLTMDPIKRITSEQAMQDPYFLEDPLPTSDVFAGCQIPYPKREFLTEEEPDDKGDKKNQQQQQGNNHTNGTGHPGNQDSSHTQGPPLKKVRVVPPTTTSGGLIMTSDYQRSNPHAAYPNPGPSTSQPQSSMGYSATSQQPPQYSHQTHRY
T1 sequence (P24863 whole entry partner): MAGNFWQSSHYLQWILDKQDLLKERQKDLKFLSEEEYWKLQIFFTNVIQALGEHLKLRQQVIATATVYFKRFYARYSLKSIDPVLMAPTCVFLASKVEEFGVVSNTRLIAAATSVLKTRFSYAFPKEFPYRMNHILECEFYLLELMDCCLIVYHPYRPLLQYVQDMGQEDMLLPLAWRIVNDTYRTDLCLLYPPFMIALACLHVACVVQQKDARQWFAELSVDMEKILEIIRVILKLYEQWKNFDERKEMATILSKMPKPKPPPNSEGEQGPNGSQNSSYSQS
Experimental: The ability of the compounds described herein to bind to the CDK8 protein was determined using the LanthaScreen method (ThermoFisher).
The measurements were conducted in a reaction volume (15 μl) using a 384-well plate (Corning, #CLS4513). CDK8/CyclinC enzyme (ThermoFisher, #PR7261B) was mixed with Anti-His-tag-Biotin antibodies (ThermoFisher, #PV6090), Streptavidin-Eu (ThermoFisher, #PV6025), and the resulting mixture was added to the wells of the plate in the amount of 5 μl per well. The final concentrations of the substances were as follows: CDK8/CyclinC—5 nM, Streptavidin-Eu—3 nM, Anti-His-tag-Biotin—3 nM. Staurosporine was used as a control inhibitor, and a 0.1% solution of dimethyl sulfoxide (DMSO) in the reaction buffer containing 250 mM HEPES (pH 7.5), 50 mM MgCl2, 5 mM EGTA, and 0.05% Brij-35 was used as a blank.
Tested inhibitors and controls were added to the corresponding wells in the amount of 5 μl per well. The plate was incubated at room temperature for 20 minutes. […] The final concentration of the tracer was 10 nm. A reaction buffer was used as a negative control instead of the tracer solution. The plate was incubated for 40 minutes at 25° C. Then the TR-FRET signal was measured on a SPARK20 plate reader (Tesap, Switzerland) according to the manufacturer's recommendations, and converted to the amount of kinase-bound tracer. The IC50 value was determined using the SparkControl Magellan 1.2 program (Tesap, Switzerland) by approximating the experimental points using a four-parameter model with the Levenberg-Marquardt optimization (Table 11).

[1] = General cytotoxicity test on HepG2 cells; format: cell-based; settings: human, 72 hours incubation, 200 to 0.78 μM, average of several runs, read-out: Hep-G2 CC50
Experimental: The CC50 value was determined in a cytotoxicity test. The experiments were performed using HepG2 cells (hepatocellular carcinoma, ATCC© HB-8065™). The cells were seeded into 96-well plates (Corning, #3599) at a concentration of ˜20×10^3 cells per 100 μl of medium per well, and incubated for 72 hours with the introduced compounds in the concentration range from 200 to 0.78 μM. Cell viability was evaluated according to the method described above.

[2] = Enzymatic stability in human liver S9 fractions; format: in vitro ADME; settings: pooled human liver S9 fraction; 0.5 mg/ml human liver S9, 10 μm compound, 37° C., pH 7.4
Experimental: Determining enzymatic stability of the candidates made it possible to evaluate the resistance of the compounds of the present invention to the exposure to biotransformation enzymes.
The enzymatic decomposition rate of the compounds was determined by incubation in a solid-state thermostat at 37° C. of a reaction mixture containing 0.5 mg/ml of pooled S9 fractions of the human liver (XenoTech, USA, cat. # H0610), 10 μm compounds, 2 mM β-nicotinamide adenine dinucleotide (Carbosynth, UK, cat. # NN 10871), and 4 mM magnesium chloride in 0.1 M sodium phosphate buffer (pH=7.4). The reaction was stopped with acetonitrile based on 100 μl of acetonitrile per 100 μl of the reaction mixture. After stopping the reaction, the samples were centrifuged for 10 minutes at 10,000 rpm. The supernatant was analyzed by chromatography using an Agilent1200 chromatograph (Agilent, USA). Chromatographic analysis was performed in a gradient elution mode at a flow rate of 1 ml/min. A logarithm of the peak area of the substance was plotted versus time. The dependent coefficient of this line corresponded to the elimination rate constant (k), which was used to calculate the half-life of the drug (t1/2) and decomposition rate (CLint): […]

[3] = Permeability through a monolayer of Caco-2 cells; format: in vitro ADME; settings: human; for Papp A→B at 2 h, 10 μM: pH 6.5 upper / pH 7.4 lower chamber, 2 h at 37° C.; for efflux ratio at 2 h, 10 μM: Papp B-A/Papp A-B
Experimental: Determining the permeability through a monolayer of Caco-2 cells makes it possible to assess the ability of the substances to penetrate biological membranes by means of both active and passive transport.
The intestinal epithelial cells (Caco-2) were cultured using filter inserts ([…], BD Falcon with High Density) for 21 days, after which the monolayer integrity was checked using a Lucifer Yellow dye (Sigma-Aldrich, USA) according to the standard protocol. When setting up an A→B transfer (“intestinal lumen”—“blood flow” transfer), solutions of the tested substances were introduced in pH 6.5 buffer (HBSS, 10 mM HEPES, 15 mM glucose solution) at a concentration of 10 μM into the upper chamber, while the lower chamber was filled with pH 7.4 buffer (HBSS, 10 mM HEPES, 15 mM Glucose solution, 1% BSA). When setting up a B→A transfer (“blood flow”—“intestinal lumen” transfer), the upper chamber was filled with pH 6.5 buffer, and the solutions of the tested substances were introduced in pH 7.4 buffer at a concentration of 10 μM into the lower chamber. Propranolol, which is a high permeability substance, was used as a control.
After incubation for 2 h at 37° C. in an atmosphere containing 5% CO2, the amounts of the tested substances in the upper and lower chambers were determined by the HPLC method using an Agilent1200 chromatograph (Agilent, USA) with preliminary precipitation of proteins with acetonitrile. Chromatographic analysis was performed using a gradient elution mode at a flow rate of 1 ml/min. Peak areas corresponding to the compounds were determined on chromatograms. Based on the peak area values of the compound in calibration standards, compound concentrations in the initial solution and in the samples taken from the wells of the upper and lower chambers were determined.
Permeability through a layer of cells (Papp) was calculated based on the formula:
Papp=(C(t)*V)/(C(θ)*t*Area), where
Papp is the effective permeability constant, m/s V is the solution volume (0.8 ml in the A→B test, and 0.2 ml in the B→A test), ml Area is the surface area of the membrane (0.33 cm^2), cm^2 t is the incubation time (7,200 s), s C(θ) is the concentration of the initial solution, μM C(t) is the concentration of the solution after 2 hours (in the sample from the lower chamber well (test A→B), and in the sample from the upper chamber well (test B→A)), μM.
The value was calculated using the following formula:
efflux=Papp B-A/Papp A-B, where
Papp A-B is the permeability value during direct assay (A→B); Papp B-A is the permeability value during reverse assay (B→A);

[4] = Chemical stability in human blood plasma; format: in vitro ADME; settings: pooled human blood plasma, 10 μM, 4 hours at 37° C., amount of substance remaining
Experimental: Chemical stability of the compounds described herein was determined in human blood plasma.
The determination of stability in human blood plasma was performed using a pooled human blood plasma taken from ten healthy donors. The initial solution of the candidate (10 mM in DMSO) was diluted with the pooled blood plasma to a concentration of 10 μM (test solution). The test solution was incubated in a solid-state thermostat for 4 hours at 37° C. The HPLC method and Agilent1200 chromatograph (Agilent, USA) were used to determine the peak areas of the compounds in the test samples corresponding to the initial test time (before incubation) and the final test time (after incubation in a solid-state thermostat for 4 hours at 37° C.) with preliminary precipitation of proteins using acetonitrile. Chromatographic analysis was performed using a gradient elution mode at a flow rate of 1 ml/min. The amount of substance in the sample expressed in % was determined after the thermostat treatment.

| Structure (SMILES) | IC50 (MV4-11 cell line) [nM] | IC50 (CDK8/CyclinC) [nM] | CC50 at 72 h [1] [nM] | microsomal CLint at 10 μM [2] [µL/min/mg] | Papp A→B at 2 h, 10 μM [3] [×10⁻⁶ cm/s] | efflux ratio at 2 h, 10 μM [3] | Stability in blood plasma, % [4] [%] | Stability in blood plasma, % ([4]; dihydrochloride) [%] |
| --- | --- | --- | --- | --- | --- | --- | --- | --- |
| CC(C)N1CCN(C(=O)c2ccc3cc(CCNc4ccnc5ccc(C#N)cc45)ccc3c2)CC1 [Compound 7] | 91 | 5.77 | 8900 | – | – | – | – | – |
| CN1CCN(C(=O)c2ccc3cc(CCNc4cnnc5ccc(C#N)cc45)ccc3c2)CC1 [Compound 4, 4-((2-(6-(4-methylpiperazine-1-carbonyl)naphth-2-yl)ethyl)amino) cinnoline-6-carbonitryl] | – | 404 | – | – | – | – | – | – |
| N#Cc1ccc2nccc(NCCc3ccc4cc(C(=O)N5CCNCC5)ccc4c3)c2c1 [Compound 18, 4-((2-(6-(piperazine-1-carbonyl)naphth-2-yl)ethyl)amino)quinoline-6-carbonitryl] | 19 | – | 11600 | 4.4 | 22.4 | 0.3 | 100 | – |
| CN1CCN(C(=O)c2ccc3cc(CCNc4ccnc5ncc(C#N)cc45)ccc3c2)CC1 [Compound 11, 5-((2-(6-(4-methylpiperazine-1-carbonyl)naphth-2-yl)ethyl)amino)-1,8-naphthyridin-3-carbonitryl] | 3300 | 655 | 85100 | – | – | – | – | – |
| CN1CCN(C(=O)c2ccc3cc(CCNc4ccnc5ccc(C#N)cc45)ccc3c2)CC1 [Compound 5, 4-((2-(6-(4-methylpiperazine-1-carbonyl)naphth-2-yl)ethyl)amino) quinoline-6-carbonitryl] | 125 | 6.07 | > 60000 | 7.2 | 7.1 | 2 | 100 | – |
| N#Cc1ccc2nccc(NCCc3ccc4cc(C(=O)N5CCOCC5)ccc4c3)c2c1 [Compound 13] | 57 | 4.04 | ~15000 | – | – | – | – | – |
| N#Cc1ccc2nccc(NCCc3ccc4cc(C(=O)N5CCN(CC(F)(F)F)CC5)ccc4c3)c2c1 [Compound 17, 4-((2-(6-(4-(2,2,2-trifluoroethyl)piperazine-4-carbonyl)naphth-2-yl)ethyl)amino)quinoline-6-carbonitryl] | 113 | 28.5 | 17900 | – | – | – | – | – |
| CN1CCN(C(=O)c2ccc3cc(CCNc4c(Cl)cnc5ccc(C#N)cc45)ccc3c2)CC1 [Compound 9, 3-chloro-4-((2-(6-(4-methylpiperazine-1-carbonyl)naphth-2-yl)ethyl)amino) quinoline-6-carbonitryl] | 106 | 20.5 | 47300 | – | – | – | 91.1 | – |
| CN1CCN(C(=O)c2ccc3cc(CCOc4ccnc5ccc(C#N)cc45)ccc3c2)CC1 [Compound 8, 4-(2-(6-(4-methylpiperazine-1-carbonyl)naphth-2-yl)ethoxy) quinoline-6-carbonitryl] | 602 | 58.2 | 11200 | – | – | – | – | – |
| CCN1CCN(C(=O)c2ccc3cc(CCNc4ccnc5ccc(C#N)cc45)ccc3c2)CC1 [Compound 12] | 79 | 6.54 | 10600 | – | – | – | – | – |
| CN1CCN(C(=O)c2ccc3cc(CCNc4c(Cl)cnc5ccc(C#N)cc45)ccc3c2)CC1 [Compound 9a, 3-chloro-4-((2-(6-(4-methylpiperazine-1-carbonyl)naphth-2-yl)ethyl)amino) quinoline-6-carbonitryl dihydrochloride] | – | – | – | – | – | – | – | 87.9 |
| CN1CCN(C(=O)c2ccc3cc(CCSc4ccnc5ccc(C#N)cc45)ccc3c2)CC1 [Compound 19, 4-((2-(6-(4-methylpiperazine-1-carbonyl)naphth-2-yl)ethyl)thio) quinoline-6-carbonitryl] | 2610 | 118 | > 200000 | – | – | – | – | – |

Reference: patent publication US20220098160A1, “NOVEL CDK 8/19 INHIBITORS” (BIOCAD, priority 2018, published 2022)
